In US20180252736A1, “CB2 RECEPTOR INTERNALIZATION” (Arena Pharmaceuticals, Inc., priority 2015, published 2018):
Entries after “also recorded” stand apart in the source; their conditions may differ.

Experiments:
[1] = tested on: MIA-induced osteoarthritis in male Sprague Dawley rats; assay: Osteoarthritis pain model (MIA); assay type: in vivo, rat; details: for in vivo efficacy over time in the osteoarthritis pain model: oral dosing; for time following dosing at which in vivo efficacy was lost / time of peak efficacy following dosing / time following dosing up to which in vivo efficacy was maintained: osteoarthritis pain model
Excerpt: Injection of monosodium iodoacetate (MIA) into a joint (J Rheumatol 14:130-1, 1987) inhibits the activity of glyceraldehyde-3-phosphate dehydrogenase in chondrocytes, resulting in disruption of glycolysis and eventually in cell death. The progressive loss of chondrocytes results in histological and morphological changes of the articular cartilage, closely resembling those seen in osteoarthritis patients.
Osteoarthritis was induced in 200 g male Sprague Dawley rats. After brief anesthesia by isoflurane, rats received a single intra-articular injection of MIA (2 mg) (Catalog #19148, Sigma Aldrich, Saint Louis, Mo.) dissolved in 0.9% sterile saline in a 50 μL volume administered through the patella ligament into the joint space of the left knee with a 30 G needle. Following injection, animals were allowed to recover from anesthesia before being returned to the main housing vivarium.
Typically during disease progression, there is an inflammation period of 0-7 days post-intra-articular injection followed by progressive degeneration of the cartilage and subchondral bone from days 14-55. Efficacy studies with a compound described herein took place from day 14 onwards and were performed twice a week with at least three days of wash-out in between each assay. Three different assays can be used to measure pain. Tactile allodynia can be measured via von Frey assay, hind limb paw weight distribution can be monitored using an incapacitance tester (Columbus Instruments, Columbus, Ohio), and hind limb grip strength can be measured using a grip strength meter (Columbus Instruments, Columbus, Ohio). Briefly, the von Frey assay was performed using the standard up/down method with von Frey filaments. Hind paw weight distribution was determined by placing rats in a chamber so that each hind paw rested on a separate force plate of the incapacitance tester. The force exerted by each hind limb (measured in grams) was averaged over a three second period. Three measurements are taken for each rat, and the change in hind paw weight distribution was calculated. Peak hind limb grip force was conducted by recoding the maximum compressive force exerted on the hind limb mesh gauge set on the grip strength meter. During testing, each rat was restrained and the paw of the injected knee was allowed to grip the mesh. The animal was then pulled in an upward motion until their grip was broken. Each rat was tested three times, with the contralateral paw used as a control.
A baseline was established for animals prior to administration of compounds. The MIA-treated groups of rats were then dosed with either vehicle (PEG400, orally), test compound (at 3 mg/kg, 10 mg/kg, and 30 mg/kg, orally), or morphine (3 mg/kg, subcutaneously). The dosing volume was 500 μL. One hour after dosing, von Frey assay, hind limb weight distribution and/or hind limb grip analysis was performed to measure the efficacy of the test compounds.

[2] = Plasma concentration in the osteoarthritis pain model studies; assay type: in vivo, rat; details: for course of plasma concentration: during the pain model time course
rat CB2 receptor [3] = target: T1, rat CB2 receptor (Rattus norvegicus, UniProt Q9QZN9); assay: CB2 receptor internalization assay (conventional fluorescence microscopy); assay type: cell-based; set-up: expressed in transfected cells; details: for receptor internalization: FIG. 10 comparison; for receptor internalization efficacy relative to CP55,940, rat CB2: fluorescence microscopy
T1 sequence (Q9QZN9 1-360): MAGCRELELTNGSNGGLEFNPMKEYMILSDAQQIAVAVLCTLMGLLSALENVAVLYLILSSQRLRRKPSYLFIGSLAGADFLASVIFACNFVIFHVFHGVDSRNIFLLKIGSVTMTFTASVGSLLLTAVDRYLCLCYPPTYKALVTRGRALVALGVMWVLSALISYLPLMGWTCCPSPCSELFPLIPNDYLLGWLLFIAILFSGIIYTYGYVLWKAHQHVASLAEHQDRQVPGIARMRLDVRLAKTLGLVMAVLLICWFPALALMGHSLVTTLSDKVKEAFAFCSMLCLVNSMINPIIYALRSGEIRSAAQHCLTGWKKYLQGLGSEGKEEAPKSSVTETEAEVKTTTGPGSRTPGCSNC
Description: (§1) Receptor internalization assays for the CB2 receptor were performed using a high content imaging system (e.g., IN Cell Analyzer, GE Healthcare Life Sciences, Pittsburgh, Pa.), or by conventional fluorescence microscopy with accessory image analysis software.
[…]. On the day of the assay, growth media was removed from the cell plate and replaced with 25 μL pre-warmed RPMI media. Additionally, 25 μL of pre-warmed RPMI media containing a fluorescent nuclear stain (Hoescht 33342 dye (1:500 dilution); Catalog #H-1399, Invitrogen,) and fluorophore-labeled antibody (Alexa-488 anti-HA monoclonal antibody (1:50 dilution); Catalog #A-21287, Invitrogen, Waltham, Mass.) was added to the cell plate. Test compounds or CP55,940 dissolved in DMSO were serially diluted in DMSO and then further diluted in RPMI to achieve 3× concentrations in 0.5% DMSO. Aliquots (25 μL) of diluted test compounds were added to assay plates, which were then incubated in a water bath at 37° C. for 1 hour. Compound containing media was removed at the end of the treatment period by inversion of the plate. The assay plate was washed twice with PBS (150 μL/well) and the cells were then fixed with 2% formaldehyde/PBS solution for 10 minutes at room temperature. Fluorescence microscopy images were captured for each well on the plate (minimum of 6 per well). The internalization of anti-HA antibody-labeled CB2 receptors results in redistribution of fluorescence from the cell surface to intracellular endosomes, which appear as punctate fluorescent granules within the cell. Quantification of receptor internalization was performed by measuring the Alexa-488 anti-HA monoclonal antibody-stained intracellular granule fluorescence intensities normalized per cell number in each well. Dose-response curves were generated using a minimum of 8 different test concentrations and triplicate determinations were made at each test concentration. Assay performance was monitored by inclusion of a standard CB2 reference agonist such as CP55,940 and agonist internalization efficacies were reported relative to that of the reference agonist.

hCB2 [4] = target: T2, hCB2 (Homo sapiens, UniProt P34972); assay: β-arrestin recruitment assay (PathHunter CHO-K1); assay type: cell-based; set-up: host or cells: PathHunter CHO-K1; details: relative to CP55,940
rat CB2 receptor [5] = target: T1, rat CB2 receptor; assay: β-arrestin recruitment assay (PathHunter CHO-K1); assay type: cell-based; set-up: host or cells: PathHunter CHO-K1; details: relative to CP55,940
human CB2 receptors = assay: CB2 receptor internalization assay (conventional fluorescence microscopy); assay type: cell-based
Description: as §1
[…]. On the day of the assay, growth media was removed from the cell plate and replaced with 25 μL pre-warmed RPMI media. Additionally, 25 μL of pre-warmed RPMI media containing a fluorescent nuclear stain (Hoescht 33342 dye (1:500 dilution); Catalog #H-1399, Invitrogen,) and fluorophore-labeled antibody (Alexa-488 anti-HA monoclonal antibody (1:50 dilution); Catalog #A-21287, Invitrogen, Waltham, Mass.) was added to the cell plate. Test compounds or CP55,940 dissolved in DMSO were serially diluted in DMSO and then further diluted in RPMI to achieve 3× concentrations in 0.5% DMSO. […] Fluorescence microscopy images were captured for each well on the plate (minimum of 6 per well). The internalization of anti-HA antibody-labeled CB2 receptors results in redistribution of fluorescence from the cell surface to intracellular endosomes, which appear as punctate fluorescent granules within the cell. Quantification of receptor internalization was performed by measuring the Alexa-488 anti-HA monoclonal antibody-stained intracellular granule fluorescence intensities normalized per cell number in each well. […]

hCB2 [6] = target: T2, hCB2; details: cited from earlier work
CB1 = CB1 (Homo sapiens, UniProt P21554); details: read-out: potency in GTP-γS binding assays, CB1 receptor; cited from earlier work
[7] = tested on: CB2 receptor over CB1 receptor; details: Eur. Urol. 2010 FIG. 2a; cited from earlier work

T2 sequence (P34972 whole entry): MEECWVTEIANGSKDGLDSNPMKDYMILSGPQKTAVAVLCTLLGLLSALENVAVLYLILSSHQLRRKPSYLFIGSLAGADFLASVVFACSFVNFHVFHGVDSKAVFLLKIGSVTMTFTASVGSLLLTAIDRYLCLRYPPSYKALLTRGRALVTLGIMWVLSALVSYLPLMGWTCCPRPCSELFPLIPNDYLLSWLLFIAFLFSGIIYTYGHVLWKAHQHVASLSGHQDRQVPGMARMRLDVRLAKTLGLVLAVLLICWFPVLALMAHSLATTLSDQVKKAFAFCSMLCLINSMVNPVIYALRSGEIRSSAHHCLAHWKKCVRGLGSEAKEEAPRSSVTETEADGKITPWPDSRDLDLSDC
Sequence of CB1 (P21554 whole entry): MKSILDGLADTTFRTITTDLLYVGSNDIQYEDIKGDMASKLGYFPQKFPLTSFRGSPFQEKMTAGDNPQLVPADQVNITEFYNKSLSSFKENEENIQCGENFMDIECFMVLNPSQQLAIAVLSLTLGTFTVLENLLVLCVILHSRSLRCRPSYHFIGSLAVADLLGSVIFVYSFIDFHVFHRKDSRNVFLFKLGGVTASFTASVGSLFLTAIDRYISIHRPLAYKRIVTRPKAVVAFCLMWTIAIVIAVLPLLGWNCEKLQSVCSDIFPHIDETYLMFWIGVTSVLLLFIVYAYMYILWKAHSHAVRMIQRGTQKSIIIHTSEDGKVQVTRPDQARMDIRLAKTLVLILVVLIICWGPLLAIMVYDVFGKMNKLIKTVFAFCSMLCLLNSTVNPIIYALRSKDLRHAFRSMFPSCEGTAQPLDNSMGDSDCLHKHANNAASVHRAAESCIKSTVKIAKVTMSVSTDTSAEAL

CC(C)(CO)NC(=O)c1nn(-c2ccc(F)cc2F)c2c1C[C@H]1C[C@@H]21 [Compound 493]
in vivo efficacy over time in the osteoarthritis pain model [1]: rapid loss of in vivo efficacy | time following dosing at which in vivo efficacy was lost [1]: two and four | course of plasma concentration [2]: high plasma concentrations that did not decline significantly until four hours following dosing | receptor internalization (rat CB2 receptor [3]): low receptor internalization | receptor internalization efficacy relative to CP55,940, rat CB2 (rat CB2 receptor [3]): 58%

CNC(=O)[C@@H](NC(=O)c1nn(-c2c[n+]([O-])ccn2)c2c1C[C@H]1C[C@@H]21)C(C)(C)C [Compound 704]
in vivo efficacy over time in the osteoarthritis pain model [1]: rapid loss of in vivo efficacy | time of peak efficacy following dosing [1]: one | course of plasma concentration [2]: increasing plasma concentrations | β-arrestin efficacy compared to CP55,940, human CB2 (hCB2 [4]): 106% | β-arrestin efficacy compared to CP55,940, rat CB2 (rat CB2 receptor [5]): 88%

O=C(NC1(C(F)(F)F)CCC1)c1nn(-c2c[n+]([O-])ccn2)c2c1C[C@@H]1C[C@H]21 [Compound 765]
receptor internalization efficacy relative to CP55,940, human CB2 (human CB2 receptors): 97% | in vivo efficacy over time in the osteoarthritis pain model [1]: sustained in vivo efficacy | time following dosing up to which in vivo efficacy was maintained [1]: six | course of plasma concentration [2]: decreasing plasma concentrations | receptor internalization efficacy relative to CP55,940, rat CB2 (rat CB2 receptor [3]): 99%

CC(CO)(CO)NC(=O)c1nn(-c2cc(C#N)ccn2)c2c1C[C@H]1C[C@@H]21 [Compound 820]
in vivo efficacy over time in the osteoarthritis pain model [1]: rapid loss of in vivo efficacy | time of peak efficacy following dosing [1]: one | course of plasma concentration [2]: high plasma concentrations | β-arrestin efficacy compared to CP55,940, human CB2 (hCB2 [4]): 82% | β-arrestin efficacy compared to CP55,940, rat CB2 (rat CB2 receptor [5]): 56%

O=C(N[C@H](CO)C1CCOCC1)c1nn(-c2c[n+]([O-])ccn2)c2c1C[C@H]1C[C@@H]21 [Compound 841]
in vivo efficacy over time in the osteoarthritis pain model [1]: sustained in vivo efficacy | time following dosing at which in vivo efficacy was lost [1]: six | time following dosing up to which in vivo efficacy was maintained [1]: four | course of plasma concentration [2]: rapidly declining plasma concentrations; also recorded: decreasing plasma concentrations | concentration at 6 h ([2]; rat, plasma, oral, when efficacy was lost, read-out: plasma drug levels at the six hour timepoint): < 3 ng/mL | receptor internalization (rat CB2 receptor [3]): high receptor internalization | receptor internalization efficacy relative to CP55,940, rat CB2 (rat CB2 receptor [3]): 105%

CC(C)(NC(=O)c1nn(-c2c[n+]([O-])ccn2)c2c1C[C@@H]1C[C@H]21)C(F)(F)F [Compound 919]
receptor internalization efficacy relative to CP55,940, human CB2 (human CB2 receptors): 95% | in vivo efficacy over time in the osteoarthritis pain model [1]: sustained in vivo efficacy | time following dosing up to which in vivo efficacy was maintained [1]: six | course of plasma concentration [2]: rapidly declining plasma concentrations; also recorded: decreasing plasma concentrations | receptor internalization efficacy relative to CP55,940, rat CB2 (rat CB2 receptor [3]): 92%

CCCCCCC(C)(C)c1cc(O)c(C2CC(=O)[C@H]3C[C@@H]2C3(C)C)c(OC(=O)/C=C/C(=O)O)c1 (some centres unmarked) [cannabinor]
agonist character at the CB2 receptor upon closer examination of the published data (hCB2 [6]; Eur. Urol. 2010 FIG. 2b): only a partial agonist | agonist character at the human CB2 receptor as the publication suggests (hCB2 [6]): full agonist | selectivity for the CB2 receptor over the CB1 receptor (GTP-γS) (hCB2 [6]): 321 fold | EC50 (hCB2 [6]; read-out: potency in GTP-γS binding assays, CB2 receptor): 0.0174 µM | EC50 (CB1): 5.59 µM | selectivity measured in radioligand binding assays [7]: approximately 10 fold
